Data as given in US7138361B2, “Herbicidal heterocycles” (E. I. du Pont de Nemours and Company, priority 2000, dated 2006).

Columns and labels:
Format in all cases: in vivo
[1] = test system: giant foxtail (Setaria faberii); assay: Test B preemergence
Summary of the method: (§1)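 Pre: seeded pots sprayed, chemical in non-phytotoxic solvent/surfactant mix. Post: plants 2–18 cm, 1–4 leaf, same formulation. Greenhouse 13–15 d; visual % control vs untreated, 0–100 scale.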

[2] = test system: morning glory (Ipomoea hederacea); assay: Test B preemergence
Summary of the method: as §1

[3] = test system: Surinam grass (Brachiaria decumbens); assay: Test B preemergence
Summary of the method: as §1

[4] = test system: lambsquarters (Chenopodium album); assay: Test B preemergence
Summary of the method: as §1

corn (Zea mays) [5] = assay: Test B preemergence
Summary of the method: as §1

[6] = test system: barnyardgrass (Echinochloa crus-galli); assay: Test B preemergence
Summary of the method: as §1

[7] = test system: velvetleaf (Abutilon theophrasti); assay: Test B preemergence
Summary of the method: as §1

[8] = test system: pigweed (Amaranthus retroflexus); assay: Test B preemergence
Summary of the method: as §1

[9] = test system: crabgrass (Digitaria sanguinalis); assay: Test B preemergence
Summary of the method: as §1

[10] = test system: cocklebur (Xanthium strumarium); assay: Test B preemergence
Summary of the method: as §1

rice (Oryza saliva) = assay: Test B preemergence
Summary of the method: as §1

Sunflower = assay: Test C preemergence; details: Rate 250 g/ha, scale 0 to 100, 0 no effect, 100 complete control
[11] = test system: giant foxtail (Setaria faberii); assay: Test B postemergence
Summary of the method: as §1

[12] = test system: wheat (Triticum aestivum); assay: Test B postemergence
Summary of the method: as §1

[13] = test system: morning glory (Ipomoea hederacea); assay: Test B postemergence
Summary of the method: as §1

[14] = test system: blackgrass (Alopecurus myosuroides); assay: Test B postemergence
Summary of the method: as §1

[15] = test system: Surinam grass (Brachiaria decumbens); assay: Test B postemergence
Summary of the method: as §1

[16] = test system: lambsquarters (Chenopodium album); assay: Test B postemergence
Summary of the method: as §1

corn (Zea mays) [17] = assay: Test B postemergence
Summary of the method: as §1

wild oat (Avena fatua) = assay: Test B postemergence
Summary of the method: as §1

[18] = test system: barnyardgrass (Echinochloa crus-galli); assay: Test B postemergence
Summary of the method: as §1

[19] = test system: velvetleaf (Abutilon theophrasti); assay: Test B postemergence
Summary of the method: as §1

[20] = test system: pigweed (Amaranthus retroflexus); assay: Test B postemergence
Summary of the method: as §1

[21] = test system: crabgrass (Digitaria sanguinalis); assay: Test B postemergence
Summary of the method: as §1

[22] = test system: cocklebur (Xanthium strumarium); assay: Test B postemergence
Summary of the method: as §1

[23] = Preemergence, Rate 500 g/ha, scale 0 to 100, 0 no effect, 100 complete control
[24] = preemergence, Rate 125 g/ha, scale of 0 to 100 where 0 is no effect and 100 is complete control, 13 to 15 days
[25] = Rate 125 g/ha, scale 0 to 100, 0 no effect, 100 complete control
[26] = Rate 500 g/ha, scale 0 to 100, 0 is no effect, 100 is complete control, 13 to 15 days
[27] = preemergence, Rate 62 g/ha, scale of 0 to 100 where 0 is no effect and 100 is complete control, 13 to 15 days
[28] = preemergence, Rate 250 g/ha, scale 0 to 100, 0 no effect, 100 complete control
[29] = Rate 62 g/ha, scale 0 to 100, 0 no effect, 100 complete control
[30] = Rate 125 g/ha, scale 0 (no effect) to 100 (complete control), 13 to 15 days
[31] = Rate 250 g/ha, scale 0 (no effect) to 100 (complete control), 13 to 15 days

CC(C)OC(=O)c1cccc(N2CCC(n3ccc(C(C)(C)C)n3)C2=O)c1 (centres unmarked) [Compound 124]
60: Plant response rating, Morningglory [2, 23]
90: Plant response rating, Cocklebur [22, 26]
30: Plant response rating, Crabgrass [9, 24]
70: Plant response rating, Barnyardgrass [6, 24]
50: Plant response rating, Foxtail, Giant [1, 24]
80: Plant response rating, Pigweed [8, 24]
20: Plant response rating, Lambsquarters [16, 25] | Plant response rating, Cocklebur [22, 25]
40: Plant response rating, Surinam grass [3, 23]
0: Plant response rating, Morningglory [2, 24] | Plant response rating, Surinam grass [3, 24] | Plant response rating, Corn (corn (Zea mays) [5]; [23]) | Plant response rating, Corn (corn (Zea mays) [5]; [24]) | Plant response rating, Velvetleaf [7, 23] | Plant response rating, Velvetleaf [7, 24] | Plant response rating, Cocklebur [10, 23] | Plant response rating, Cocklebur [10, 24] | Plant response rating, Rice (rice (Oryza saliva); [23]) | Plant response rating, Rice (rice (Oryza saliva); [24]) | Plant response rating, Sunflower (Sunflower) | Plant response rating, Foxtail, Giant [11, 25] | Plant response rating, Wheat [12, 25] | Plant response rating, Morningglory [13, 25] | Plant response rating, Blackgrass [14, 25] | Plant response rating, Surinam grass [15, 25] | Plant response rating, Surinam grass [15, 26] | Plant response rating, Corn (corn (Zea mays) [17]; [25]) | Plant response rating, Corn (corn (Zea mays) [17]; [26]) | Plant response rating, Wild Oat (wild oat (Avena fatua); [25]) | Plant response rating, Barnyardgrass [18, 25] | Plant response rating, Barnyardgrass [18, 26] | Plant response rating, Velvetleaf [19, 25] | Plant response rating, Pigweed [20, 25] | Plant response rating, Crabgrass [21, 25]
100: Plant response rating, Foxtail, Giant [1, 23] | Plant response rating, Lambsquarters [4, 23] | Plant response rating, Lambsquarters [4, 24] | Plant response rating, Barnyardgrass [6, 23] | Plant response rating, Pigweed [8, 23] | Plant response rating, Crabgrass [9, 23]

Cc1ccc(N2CCC(n3ccc(C(C)(C)C)n3)C2=O)cc1OCCCl (centres unmarked) [Compound 109]
40: Plant response rating, Cocklebur [22, 30]
60: Plant response rating, Velvetleaf [7, 28] | Plant response rating, Pigweed [20, 31] | Plant response rating, Cocklebur [22, 29]
0: Plant response rating, Foxtail, Giant [1, 24] | Plant response rating, Morningglory [2, 23] | Plant response rating, Morningglory [2, 27] | Plant response rating, Morningglory [2, 24] | Plant response rating, Morningglory [2, 28] | Plant response rating, Corn (corn (Zea mays) [5]; [23]) | Plant response rating, Corn (corn (Zea mays) [5]; [27]) | Plant response rating, Corn (corn (Zea mays) [5]; [24]) | Plant response rating, Corn (corn (Zea mays) [5]; [28]) | Plant response rating, Barnyardgrass [6, 27] | Plant response rating, Velvetleaf [7, 27] | Plant response rating, Velvetleaf [7, 24] | Plant response rating, Cocklebur [10, 23] | Plant response rating, Cocklebur [10, 27] | Plant response rating, Cocklebur [10, 24] | Plant response rating, Cocklebur [10, 28] | Plant response rating, Rice (rice (Oryza saliva); [23]) | Plant response rating, Rice (rice (Oryza saliva); [27]) | Plant response rating, Rice (rice (Oryza saliva); [24]) | Plant response rating, Rice (rice (Oryza saliva); [28]) | Plant response rating, Foxtail, Giant [11, 29] | Plant response rating, Foxtail, Giant [11, 30] | Plant response rating, Foxtail, Giant [11, 26] | Plant response rating, Wheat [12, 29] | Plant response rating, Wheat [12, 31] | Plant response rating, Wheat [12, 26] | Plant response rating, Blackgrass [14, 29] | Plant response rating, Blackgrass [14, 30] | Plant response rating, Blackgrass [14, 31] | Plant response rating, Blackgrass [14, 26] | Plant response rating, Surinam grass [15, 29] | Plant response rating, Surinam grass [15, 30] | Plant response rating, Surinam grass [15, 26] | Plant response rating, Corn (corn (Zea mays) [17]; [29]) | Plant response rating, Corn (corn (Zea mays) [17]; [30]) | Plant response rating, Corn (corn (Zea mays) [17]; [31]) | Plant response rating, Corn (corn (Zea mays) [17]; [26]) | Plant response rating, Wild Oat (wild oat (Avena fatua); [29]) | Plant response rating, Wild Oat (wild oat (Avena fatua); [31]) | Plant response rating, Wild Oat (wild oat (Avena fatua); [26]) | Plant response rating, Barnyardgrass [18, 29] | Plant response rating, Barnyardgrass [18, 30] | Plant response rating, Barnyardgrass [18, 31] | Plant response rating, Barnyardgrass [18, 26] | Plant response rating, Velvetleaf [19, 29] | Plant response rating, Crabgrass [21, 29] | Plant response rating, Crabgrass [21, 30] | Plant response rating, Crabgrass [21, 31] | Plant response rating, Crabgrass [21, 26]
30: Plant response rating, Barnyardgrass [6, 24]
70: Plant response rating, Velvetleaf [7, 23] | Plant response rating, Cocklebur [22, 31]
50: Plant response rating, Foxtail, Giant [1, 23] | Plant response rating, Surinam grass [3, 24] | Plant response rating, Barnyardgrass [6, 28] | Plant response rating, Pigweed [20, 29]
90: Plant response rating, Surinam grass [3, 28] | Plant response rating, Sunflower (Sunflower) | Plant response rating, Morningglory [13, 29] | Plant response rating, Lambsquarters [16, 31] | Plant response rating, Lambsquarters [16, 26] | Plant response rating, Pigweed [20, 26] | Plant response rating, Cocklebur [22, 26]
80: Plant response rating, Lambsquarters [16, 29] | Plant response rating, Velvetleaf [19, 31] | Plant response rating, Velvetleaf [19, 26]
100: Plant response rating, Foxtail, Giant [1, 28] | Plant response rating, Surinam grass [3, 23] | Plant response rating, Lambsquarters [4, 23] | Plant response rating, Lambsquarters [4, 27] | Plant response rating, Lambsquarters [4, 24] | Plant response rating, Lambsquarters [4, 28] | Plant response rating, Barnyardgrass [6, 23] | Plant response rating, Pigweed [8, 23] | Plant response rating, Pigweed [8, 27] | Plant response rating, Pigweed [8, 24] | Plant response rating, Pigweed [8, 28] | Plant response rating, Crabgrass [9, 23] | Plant response rating, Crabgrass [9, 27] | Plant response rating, Crabgrass [9, 24] | Plant response rating, Crabgrass [9, 28] | Plant response rating, Morningglory [13, 31] | Plant response rating, Morningglory [13, 26]
20: Plant response rating, Foxtail, Giant [1, 27] | Plant response rating, Surinam grass [3, 27] | Plant response rating, Foxtail, Giant [11, 31] | Plant response rating, Surinam grass [15, 31]
